# Source: US11564924B2, “Pharmaceutical composition formed by combining pyridoxamine compound and thiamine compound” (RENASCIENCE CO., LTD., priority 2014, dated 2023)
# Assays:
# Format in all cases: in vivo, human
# [1] = tested on: schizophrenia patients; experiment: Total PANSS score in schizophrenia patients given the pyridoxamine compound; settings: for Change from baseline in total PANSS score, Maximum / Change from baseline in total PANSS score, Median / Change from baseline in total PANSS score, Minimum / Change from baseline in total PANSS score, Mean change: FAS; for Change from baseline in total PANSS score, Mean change: 1200-2400 mg per day oral
# Description: The target subjects (subjects) of this test (administration of a pyridoxamine compound; hereinafter, this is also referred to as “drug administration”) were patients who were diagnosed with schizophrenia and met all of the following conditions (1) to (3):
# (§1) Drug administration was initiated for nine subjects from whom consent was obtained. The observation period was defined as the period from the day on which consent was obtained (Day −14) to the day 2 weeks after the day of consent (Day 0), and the initial day of drug administration was defined as Day 1. The data of Day 1 is data immediately before the start of administration of the pyridoxamine compound. The drug administration period was defined as the 24-week period from the start of drug administration (Day 1 to Day 169).
# In the drug administration, pyridoxamine dihydrochloride was used as the pyridoxamine compound and orally administered in an amount of 1200 mg, 1800 mg, or 2400 mg per day (administered three times a day, morning, noon, and before bedtime, in an amount of 400 mg, 600 mg, or 800 mg each time). In the drug administration period, the dose was increased or decreased within the above range according to the condition of each patient.
# The effect of administration of the pyridoxamine compound (drug administration) was evaluated according to the Positive and Negative Syndrome Scale (PANSS) score and the concentration of pentosidine in blood of the schizophrenia patients.
# The PANSS score was determined by SCI-PANSS, which uses a structured interview, according to the Positive and Negative Syndrome Scale (PANSS) manual (translated by Hiroshi Yamada, Kanji Masui, and Hirotsugu Kikumoto; Tokyo: Seiwa Shoten Co., Ltd., 1991). An interview for evaluation was conducted for 30 evaluation items. Each item was scored on a scale of 1 to 7. The sum of the scores was calculated, and the difference between the PANSS score on Day 1 and the PANSS score on each test day was determined. […] The subjects were prohibited from taking hypnotic drugs or antianxiety drugs within 4 hours before PANSS evaluation.
# [2] = tested on: pentosidine; experiment: Plasma pentosidine concentration in schizophrenia patients (HPLC); settings: Day 169 vs Day 1; nine subjects
# Description: as §1, with “169). […]” for “169).”
# In the morning […], on the initial day of drug administration (Day 1), and on Day 15, Day 29, Day 85, and Day 169 after the start of drug administration, blood was drawn from the nine subjects above before administration of the drug. […] The plasma pentosidine concentration was measured according to the method described below. […]
# The samples prepared as described above were diluted 10-fold with Milli-Q water (diluted samples). […] The diluted samples and the diluted pentosidine standard were subjected to HPLC (HPLC apparatus produced by Shimadzu Science) under the following conditions, and analysis of pentosidine was performed with a fluorescence measuring device (SLC-10Avp; equipped with UV and fluorescence detectors). […]
# [3] = tested on: Wernicke's encephalopathy; experiment: Wernicke's encephalopathy findings (MRI of the brain, symptoms) during drug administration
# Procedure: Immediately after the patient was suspected of having Wernicke's encephalopathy, oral administration of a thiamine compound (fursultiamine (Takeda Pharmaceutical Company Limited)) at a dose of 75 mg/day was initiated (administered once a day) and continued every day.
# Immediately after the patient was suspected of having Wernicke's encephalopathy, intravenous administration of a thiamine compound (fursultiamine (Takeda Pharmaceutical Company Limited)) (300 mg/day) was performed, and then (from 10 weeks after the start of drug administration), oral administration of the thiamine compound at a dose of 100 to 50 mg/day was continued.
smiles,measurement,setting,value
Cc1ncc(CO)c(CN)c1O.Cl.Cl [pyridoxamine dihydrochloride],"Change from baseline in total PANSS score, Maximum",[1]; Day 15 (2 w),12
same,"Change from baseline in total PANSS score, Median",[1]; Day 15 (2 w),3.0
same,"Change from baseline in total PANSS score, Minimum",[1]; Day 15 (2 w),−44
same,"Change from baseline in total PANSS score, Mean change",[1]; Day 15 (2 w),−3.7
same,"Change from baseline in total PANSS score, Maximum",[1]; Day 29 (4 w),10
same,"Change from baseline in total PANSS score, Median",[1]; Day 29 (4 w),1.0
same,"Change from baseline in total PANSS score, Minimum",[1]; Day 29 (4 w),−49
same,"Change from baseline in total PANSS score, Mean change",[1]; Day 29 (4 w),−4.4
same,"Change from baseline in total PANSS score, Maximum",[1]; Day 57 (8 w),13
same,"Change from baseline in total PANSS score, Median",[1]; Day 57 (8 w),1.0
same,"Change from baseline in total PANSS score, Minimum",[1]; Day 57 (8 w),−58
same,"Change from baseline in total PANSS score, Mean change",[1]; Day 57 (8 w),−5.0
same,"Change from baseline in total PANSS score, Maximum",[1]; Day 85 (12 w),21
same,"Change from baseline in total PANSS score, Median",[1]; Day 85 (12 w),−3.0
same,"Change from baseline in total PANSS score, Minimum",[1]; Day 85 (12 w),−65
same,"Change from baseline in total PANSS score, Mean change",[1]; Day 85 (12 w),−7.3
same,"Change from baseline in total PANSS score, Maximum",[1]; Day 113 (16 w),8
same,"Change from baseline in total PANSS score, Median",[1]; Day 113 (16 w),−5.0
same,"Change from baseline in total PANSS score, Minimum",[1]; Day 113 (16 w),−69
same,"Change from baseline in total PANSS score, Mean change",[1]; Day 113 (16 w),−12.2
same,"Change from baseline in total PANSS score, Maximum",[1]; Day 141 (20 w),17
same,"Change from baseline in total PANSS score, Median",[1]; Day 141 (20 w),−1.5
same,"Change from baseline in total PANSS score, Minimum",[1]; Day 141 (20 w),−64
same,"Change from baseline in total PANSS score, Mean change",[1]; Day 141 (20 w),−9.6
same,"Change from baseline in total PANSS score, Maximum",[1]; Day 169 (24 w),14
same,"Change from baseline in total PANSS score, Median",[1]; Day 169 (24 w),−7.5
same,"Change from baseline in total PANSS score, Minimum",[1]; Day 169 (24 w),−69
same,"Change from baseline in total PANSS score, Mean change",[1]; Day 169 (24 w),−11.4
same,"Change from baseline in total PANSS score, Maximum",[1]; Final evaluation time point,14
same,"Change from baseline in total PANSS score, Median",[1]; Final evaluation time point,−5.0
same,"Change from baseline in total PANSS score, Minimum",[1]; Final evaluation time point,−69
same,"Change from baseline in total PANSS score, Mean change",[1]; Final evaluation time point,−10.6
same,PANSS score decreased by an average of,[1]; day 15 after the start of drug administration (Day 15),3.7 points
same,PANSS score decreased by an average of,[1]; day 113 after the start of drug administration (Day 113),12.2 points
same,effect on the symptom of schizophrenia,"[1]; schizophrenia patients, 24-week administration",effective in improving the symptom of schizophrenia
same,blood pentosidine concentration at the end of administration versus Day 1,[2],lower than that on Day 1 in at least seven subjects
same,MRI of the brain finding during drug administration,"[3]; patient ID No. 3, 6 weeks after the start of drug administration, after an epilepsy-like symptom",findings suggestive of Wernicke's encephalopathy
same,MRI of the brain finding during drug administration,"[3]; patient ID No. 6, 9 weeks after the start of drug administration",findings suggestive of Wernicke's encephalopathy
